Test results as given in patent publication US11053516B2, “Glucose composition, microbial fermentation raw material, and method of producing chemical product” (Toray Industries, Inc., priority 2016, dated 2021).

From the text: Further, the glucose composition was adjusted to a final pH of 7 using 6 N sodium hydroxide.

With `O=C(O)/C=C/c1ccc(O)cc1` [Coumaric acid, trans-p-coumaric acid] the Solubility in water was “not dissolved”.
